Test results reported in ChEMBL document CHEMBL1201861, “Genomics of Drug Sensitity in Cancer screening data, Wellcome Trust Sanger Institute”.

Key:
Assay in all cases: cells
Conditions in all cases: Homo sapiens
MZ2-MEL = assay type: functional, cell-based;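 note: growth inhibition of MZ2-MEL cells read out with a cell viability assay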
Description: SANGER: Inhibition of human MZ2-MEL cell growth in a cell viability assay.

SH-4 = assay type: functional, cell-based;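 note: growth inhibition of SH-4 cells, read out with a cell viability assay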
Description: SANGER: Inhibition of human SH-4 cell growth in a cell viability assay.

VA-ES-BJ = assay type: functional, cell-based;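 note: growth inhibition of the VA-ES-BJ cell line, read out by a cell viability assay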
Description: SANGER: Inhibition of human VA-ES-BJ cell growth in a cell viability assay.

KE-37 = assay type: functional, cell-based;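 note: growth inhibition of KE-37 cells, read out with a cell viability assay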
Description: SANGER: Inhibition of human KE-37 cell growth in a cell viability assay.

L-363 = assay type: functional, cell-based
Description: SANGER: Inhibition of human L-363 cell growth in a cell viability assay.

NMC-G1 = assay type: functional, cell-based;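 note: growth inhibition of the NMC-G1 cell line, measured with a cell viability read-out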
Description: SANGER: Inhibition of human NMC-G1 cell growth in a cell viability assay.

COLO-320-HSR = assay type: functional, cell-based;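 note: growth inhibition of COLO-320-HSR cells, determined with a cell viability assay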
Description: SANGER: Inhibition of human COLO-320-HSR cell growth in a cell viability assay.

PSN1 = assay type: functional, cell-based;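 note: suppression of growth of human PSN1 cells, read out by a cell viability assay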
Description: SANGER: Inhibition of human PSN1 cell growth in a cell viability assay.

SF-126 = assay type: functional, cell-based;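 note: growth inhibition of human SF126 cells, read out with a cell viability assay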
Description: SANGER: Inhibition of human SF126 cell growth in a cell viability assay.

NCI-H526 = assay type: functional, cell-based;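 note: growth inhibition of the human NCI-H526 cell line, measured by a cell viability assay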
Description: SANGER: Inhibition of human NCI-H526 cell growth in a cell viability assay.

MFH-ino = assay type: functional, cell-based;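 note: growth inhibition of human MFH-ino cells, read out by a cell viability assay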
Description: SANGER: Inhibition of human MFH-ino cell growth in a cell viability assay.

D-263MG = assay type: functional, cell-based
Description: SANGER: Inhibition of human D-263MG cell growth in a cell viability assay.

NCI-H747 = assay type: functional, cell-based;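 note: growth inhibition of human NCI-H747 cells, read out by a cell viability assay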
Description: SANGER: Inhibition of human NCI-H747 cell growth in a cell viability assay.

ONS-76 = assay type: functional, cell-based;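 note: growth inhibition of human ONS-76 cells, read out with a cell viability assay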
Description: SANGER: Inhibition of human ONS-76 cell growth in a cell viability assay.

LS-411N = assay type: functional, cell-based
EW-16 = assay type: functional, cell-based;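 note: growth inhibition of human EW-16 cells, read out as cell viability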
Description: SANGER: Inhibition of human EW-16 cell growth in a cell viability assay.

HC-1 = assay type: functional, cell-based;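 note: growth inhibition of HC-1 cells measured by a cell viability assay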
Description: SANGER: Inhibition of human HC-1 cell growth in a cell viability assay.

NCI-H1355 = assay type: functional, cell-based;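 note: growth inhibition of human NCI-H1355 cells, read out by a cell viability assay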
Description: SANGER: Inhibition of human NCI-H1355 cell growth in a cell viability assay.

HD-MY-Z = assay type: functional, cell-based;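 note: growth inhibition of HD-MY-Z cells, read out with a cell viability assay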
Description: SANGER: Inhibition of human HD-MY-Z cell growth in a cell viability assay.

GR-ST = assay type: functional, cell-based
Description: SANGER: Inhibition of human GR-ST cell growth in a cell viability assay.

ES7 = assay type: functional, cell-based;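 note: growth inhibition of cultured human ES7 cells, read out as cell viability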
Description: SANGER: Inhibition of human ES7 cell growth in a cell viability assay.

MLMA = assay type: functional, cell-based;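 note: growth inhibition of MLMA cells (human), determined through a cell viability readout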
Description: SANGER: Inhibition of human MLMA cell growth in a cell viability assay.

NOMO-1 = assay type: functional, cell-based;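 note: growth inhibition of human NOMO-1 cells measured by a cell viability assay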
Description: SANGER: Inhibition of human NOMO-1 cell growth in a cell viability assay.

TE-5 = assay type: functional, cell-based;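 note: inhibition of cell growth, read out by a cell viability assay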
Description: SANGER: Inhibition of human TE-5 cell growth in a cell viability assay.

EM-2 = assay type: functional, cell-based;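 note: growth inhibition of EM-2 cells, read out with a cell viability assay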
Description: SANGER: Inhibition of human EM-2 cell growth in a cell viability assay.

LS-1034 = assay type: functional, cell-based
Description: SANGER: Inhibition of human LS-1034 cell growth in a cell viability assay.

HCE-T = assay type: functional, cell-based;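 note: cell viability assay read-out, reporting inhibition of HCE-T cell growth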
Description: SANGER: Inhibition of human HCE-T cell growth in a cell viability assay.

K562 = assay type: functional, cell-based
Description: SANGER: Inhibition of human K-562 cell growth in a cell viability assay.

HT = assay type: functional, cell-based
Description: SANGER: Inhibition of human HT cell growth in a cell viability assay.

SW 962 = assay type: functional, cell-based;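 note: growth inhibition of human SW962 cells, read out by a cell viability assay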
Description: SANGER: Inhibition of human SW962 cell growth in a cell viability assay.

OVCAR-4 = assay type: functional, cell-based;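 note: growth inhibition of human OVCAR-4 cells, measured with a cell viability assay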
Description: SANGER: Inhibition of human OVCAR-4 cell growth in a cell viability assay.

DOHH-2 = assay type: functional, cell-based;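 note: growth inhibition of human DOHH-2 cells, read out with a cell viability assay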
Description: SANGER: Inhibition of human DOHH-2 cell growth in a cell viability assay.

EW-11 = assay type: functional, cell-based;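 note: growth inhibition of human EW-11 cells, measured with a cell viability assay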
Description: SANGER: Inhibition of human EW-11 cell growth in a cell viability assay.

NCI-H720 = assay type: functional, cell-based;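 note: growth inhibition of human NCI-H720 cells determined by a cell viability assay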
Description: SANGER: Inhibition of human NCI-H720 cell growth in a cell viability assay.

NKM-1 = assay type: functional, cell-based;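 note: growth inhibition of NKM-1 cells, read out with a cell viability assay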
Description: SANGER: Inhibition of human NKM-1 cell growth in a cell viability assay.

COLO-829 = assay type: functional, cell-based
Description: SANGER: Inhibition of human COLO-829 cell growth in a cell viability assay.

KS-1 = assay type: functional, cell-based;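 note: growth inhibition of KS-1 cells, read out with a cell viability assay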
Description: SANGER: Inhibition of human KS-1 cell growth in a cell viability assay.

DU-4475 = assay type: functional, cell-based
Description: SANGER: Inhibition of human DU-4475 cell growth in a cell viability assay.

EC-GI-10 = assay type: functional, cell-based
Description: SANGER: Inhibition of human EC-GI-10 cell growth in a cell viability assay.

NCI-H2126 = assay type: functional, cell-based;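 note: growth inhibition of the cancer cell line, determined with a cell viability readout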
Description: SANGER: Inhibition of human NCI-H2126 cell growth in a cell viability assay.

DSH1 = assay type: functional, cell-based;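 note: growth inhibition of human DSH1 cells, measured with a cell viability readout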
Description: SANGER: Inhibition of human DSH1 cell growth in a cell viability assay.

LB373-MEL-D = assay type: functional, cell-based;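 note: growth inhibition of the cell line, read out in a cell viability assay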
Description: SANGER: Inhibition of human LB373-MEL-D cell growth in a cell viability assay.

CTB-1 = assay type: functional, cell-based
Description: SANGER: Inhibition of human CTB-1 cell growth in a cell viability assay.

NCI-H82 = assay type: functional, cell-based;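 note: growth inhibition of NCI-H82 cells, measured with a cell viability readout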
Description: SANGER: Inhibition of human NCI-H82 cell growth in a cell viability assay.

MC116 = assay type: functional, cell-based;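 note: growth inhibition of MC116 cells, read out with a cell viability assay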
Description: SANGER: Inhibition of human MC116 cell growth in a cell viability assay.

BT-474 = assay type: functional, cell-based
Description: SANGER: Inhibition of human BT-474 cell growth in a cell viability assay.

LAMA-84 = assay type: functional, cell-based;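 note: growth inhibition of LAMA-84 cells, read out with a cell viability assay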
Description: SANGER: Inhibition of human LAMA-84 cell growth in a cell viability assay.

MV4-11 = assay type: functional, cell-based, MV-4-11;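 note: cell viability readout measuring growth inhibition of human MV-4-11 cells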
Description: SANGER: Inhibition of human MV-4-11 cell growth in a cell viability assay.

RS4-11 = assay type: functional, cell-based;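 note: growth inhibition of RS4-11 cells, read out by a cell viability assay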
Description: SANGER: Inhibition of human RS4-11 cell growth in a cell viability assay.

LU-134-A = assay type: functional, cell-based
Description: SANGER: Inhibition of human LU-134-A cell growth in a cell viability assay.

MOLT-4 = assay type: functional, cell-based;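 note: growth inhibition of MOLT-4 cells, determined with a cell viability readout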
Description: SANGER: Inhibition of human MOLT-4 cell growth in a cell viability assay.

BB49-HNC = assay type: functional, cell-based;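 note: cell viability assay read-out, reported as inhibition of BB49-HNC cell growth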
Description: SANGER: Inhibition of human BB49-HNC cell growth in a cell viability assay.

ML-2 = assay type: functional, cell-based;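 note: growth inhibition of ML-2 cells, measured with a cell viability readout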
Description: SANGER: Inhibition of human ML-2 cell growth in a cell viability assay.

ETK-1 = assay type: functional, cell-based;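 note: growth inhibition of human ETK-1 cells, read out with a cell viability assay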
Description: SANGER: Inhibition of human ETK-1 cell growth in a cell viability assay.

L-428 = assay type: functional, cell-based
Description: SANGER: Inhibition of human L-428 cell growth in a cell viability assay.

C2BBe1 = assay type: functional, cell-based;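 note: growth inhibition of C2BBe1 cells, read out through a viability assay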
Description: SANGER: Inhibition of human C2BBe1 cell growth in a cell viability assay.

HL-60 = assay type: functional, cell-based;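 note: growth inhibition of human HL-60 cells, read out with a cell viability assay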
Description: SANGER: Inhibition of human HL-60 cell growth in a cell viability assay.

no-10 = assay type: functional, cell-based;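 note: growth inhibition of no-10 cells, read out with a cell viability assay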
Description: SANGER: Inhibition of human no-10 cell growth in a cell viability assay.

LXF-289 cell line = assay type: functional, cell-based
Description: SANGER: Inhibition of human LXF-289 cell growth in a cell viability assay.

MHH-NB-11 = assay type: functional, cell-based;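 note: growth inhibition of human MHH-NB-11 cells, read out by a cell viability assay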
Description: SANGER: Inhibition of human MHH-NB-11 cell growth in a cell viability assay.

SF-268 = assay type: functional, cell-based;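 note: growth inhibition of SF-268 cells determined with a cell viability assay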
Description: SANGER: Inhibition of human SF268 cell growth in a cell viability assay.

GT3TKB = assay type: functional, cell-based;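 note: growth inhibition of the cell line, read out with a cell viability assay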
Description: SANGER: Inhibition of human GT3TKB cell growth in a cell viability assay.

J-RT3-T3-5 = assay type: functional, cell-based;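 note: cell viability assay measuring growth inhibition of human J-RT3-T3-5 cells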
Description: SANGER: Inhibition of human J-RT3-T3-5 cell growth in a cell viability assay.

LAN-6 = assay type: functional, cell-based;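 note: growth inhibition of LAN-6 cells, determined with a cell viability assay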
Description: SANGER: Inhibition of human LAN-6 cell growth in a cell viability assay.

IST-MES1 = assay type: functional, cell-based
Description: SANGER: Inhibition of human IST-MES1 cell growth in a cell viability assay.

Work on `Cc1n[nH]c2ccc(-c3cncc(OC[C@@H](N)Cc4c[nH]c5ccccc45)c3)cc12` [A-443654] yielded an IC50 (MZ2-MEL) of over 1020 nM, an IC50 (SH-4) of 185 nM and an IC50 (VA-ES-BJ) of 129 nM. The IC50 (KE-37) was 110 nM, the IC50 (L-363) was 153 nM and the IC50 (NMC-G1) was 880 nM. For the same compound, the IC50 (COLO-320-HSR) was 937 nM, the IC50 (PSN1) was 47.3 nM and the IC50 (SF-126) was 311 nM. The IC50 (NCI-H526) was over 1020 nM, the IC50 (MFH-ino) was 236 nM and the IC50 (D-263MG) was over 1020 nM. The IC50 (NCI-H747) was 82.5 nM, the IC50 (ONS-76) was 444 nM and the IC50 (LS-411N) was 87.5 nM. For the same compound, the IC50 (EW-16) was 216 nM, the IC50 (HC-1) was 208 nM and the IC50 (NCI-H1355) was 113 nM. The IC50 (HD-MY-Z) was over 1020 nM, the IC50 (GR-ST) was 448 nM and the IC50 (ES7) was over 1020 nM. It also gave an IC50 (MLMA) of 447 nM, an IC50 (NOMO-1) of 561 nM and an IC50 (TE-5) of 169 nM. It also gave an IC50 (EM-2) of 583 nM, an IC50 (LS-1034) of 630 nM and an IC50 (HCE-T) of 451 nM. The IC50 (K562) was 385 nM, the IC50 (HT) was 373 nM and the IC50 (SW 962) was 255 nM. It also gave an IC50 (OVCAR-4) of 243 nM, an IC50 (DOHH-2) of 240 nM and an IC50 (EW-11) of over 1020 nM. The IC50 (NCI-H720) was 154 nM, the IC50 (NKM-1) was over 1020 nM and the IC50 (COLO-829) was over 1020 nM. The IC50 (KS-1) was 53.5 nM, the IC50 (DU-4475) was 801 nM and the IC50 (EC-GI-10) was over 1020 nM. The IC50 (NCI-H2126) was 309 nM, the IC50 (DSH1) was 361 nM and the IC50 (LB373-MEL-D) was 531 nM. The IC50 (CTB-1) was 509 nM, the IC50 (NCI-H82) was 164 nM and the IC50 (MC116) was 137 nM. It also gave an IC50 (BT-474) of 584 nM, an IC50 (LAMA-84) of 610 nM and an IC50 (MV4-11) of 57.7 nM. The IC50 (RS4-11) was 168 nM, the IC50 (LU-134-A) was 363 nM and the IC50 (MOLT-4) was 131 nM. It also gave an IC50 (BB49-HNC) of over 1020 nM, an IC50 (ML-2) of 192 nM and an IC50 (ETK-1) of 101 nM. The IC50 (L-428) was over 1020 nM, the IC50 (C2BBe1) was over 1020 nM and the IC50 (HL-60) was 500 nM. It also gave an IC50 (no-10) of 129 nM, an IC50 (LXF-289 cell line) of 179 nM and an IC50 (MHH-NB-11) of over 1020 nM. The IC50 (SF-268) was over 1020 nM, the IC50 (GT3TKB) was over 1020 nM and the IC50 (J-RT3-T3-5) was 185 nM. It also gave an IC50 (LAN-6) of 886 nM and an IC50 (IST-MES1) of over 1020 nM.
Work on `Cc1nc(Nc2ncc(C(=O)Nc3c(C)cccc3Cl)s2)cc(N2CCN(CCO)CC2)n1` [DASATINIB] yielded an IC50 (MZ2-MEL) of 285 nM, an IC50 (SH-4) of 184 nM and an IC50 (VA-ES-BJ) of 39 nM. The IC50 (KE-37) was over 1280 nM, the IC50 (L-363) was over 1280 nM and the IC50 (NMC-G1) was 116 nM. The IC50 (COLO-320-HSR) was over 1280 nM, the IC50 (PSN1) was 44.7 nM and the IC50 (SF-126) was 354 nM. The IC50 (NCI-H526) was over 1280 nM, the IC50 (MFH-ino) was 47.2 nM and the IC50 (D-263MG) was 362 nM. The IC50 (NCI-H747) was 83.6 nM, the IC50 (ONS-76) was 430 nM and the IC50 (LS-411N) was over 1280 nM. It also gave an IC50 (EW-16) of 762 nM, an IC50 (HC-1) of over 1280 nM and an IC50 (NCI-H1355) of 110 nM. For the same compound, the IC50 (HD-MY-Z) was over 1280 nM, the IC50 (GR-ST) was over 1280 nM and the IC50 (ES7) was over 1280 nM. It also gave an IC50 (MLMA) of 140 nM, an IC50 (NOMO-1) of over 1280 nM and an IC50 (TE-5) of over 1280 nM. The IC50 (EM-2) was under 5 nM, the IC50 (LS-1034) was over 1280 nM and the IC50 (HCE-T) was over 1280 nM. It also gave an IC50 (K562) of under 5 nM, an IC50 (HT) of over 1280 nM and an IC50 (SW 962) of 113 nM. It also gave an IC50 (OVCAR-4) of 374 nM, an IC50 (DOHH-2) of 17.2 nM and an IC50 (EW-11) of over 1280 nM. The IC50 (NCI-H720) was over 1280 nM, the IC50 (NKM-1) was over 1280 nM and the IC50 (COLO-829) was 122 nM. It also gave an IC50 (KS-1) of 27.3 nM, an IC50 (DU-4475) of over 1280 nM and an IC50 (EC-GI-10) of over 1280 nM. It also gave an IC50 (NCI-H2126) of over 1280 nM, an IC50 (DSH1) of 240 nM and an IC50 (LB373-MEL-D) of 825 nM. For the same compound, the IC50 (CTB-1) was over 1280 nM, the IC50 (NCI-H82) was over 1280 nM and the IC50 (MC116) was 114 nM. The IC50 (BT-474) was over 1280 nM, the IC50 (LAMA-84) was under 5 nM and the IC50 (MV4-11) was over 1280 nM. It also gave an IC50 (RS4-11) of over 1280 nM, an IC50 (LU-134-A) of over 1280 nM and an IC50 (MOLT-4) of over 1280 nM. It also gave an IC50 (BB49-HNC) of 386 nM, an IC50 (ML-2) of over 1280 nM and an IC50 (ETK-1) of 28.3 nM. The IC50 (L-428) was over 1280 nM, the IC50 (C2BBe1) was 83.1 nM and the IC50 (HL-60) was over 1280 nM. It also gave an IC50 (no-10) of 319 nM, an IC50 (LXF-289 cell line) of 39.6 nM and an IC50 (MHH-NB-11) of over 1280 nM. It also gave an IC50 (SF-268) of 174 nM, an IC50 (GT3TKB) of over 1280 nM and an IC50 (J-RT3-T3-5) of over 1280 nM. For the same compound, the IC50 (LAN-6) was over 1280 nM and the IC50 (IST-MES1) was 85.5 nM.
